Source: patent EP2926811A1, “ARTEMETHER-CONTAINING PHARMACEUTICAL COMPOSITION, PREPARATION, AND USE THEREOF” (Kunming Pharmaceutical Corp., priority 2012, dated 2014)
pIC50: −log10 of the molar value. Where two headings read alike, the source gives them in different places.

How the values were obtained:
Assay type in all cases: cell-based
K562 cells = assay: modified MTT method, proliferation of K562 cells; details: Homo sapiens, read-out: IC50 on the growth of K562 cells
Protocol: (§1) Five test concentrations 2, 10, 50, 250 and 500 µM were set for each of five derivatives of artemisinin, artemether drug substance, artemisinin, dihydroartemisinin, artesunate were dissolved with dimethyl sulfoxide (DMSO), while the lyophilized powder of artemether was dissolved with normal saline (N.S.), followed by addition of a certain amount of RPMI 1640 complete culture solution to formulate a high-concentration solution, and each of the low-concentration solutions was formulated by proportionate dilution from the high-concentration solution.
(§2) The concentrations of DMSO contained in the solutions at the two relatively high concentrations 500 and 250 µM for the artemether drug substance, artemisinin, dihydroartemisinin, artesunate, used as solvent controls, were formulated with […] culture solution, at which time the test concentrations of DMSO were 1% and 0.5%. The concentrations of the excipients contained in the solutions at the two relatively high concentrations 500 and 250 µM for the preparation of lyophilized powder of artemether were used as solvent controls.
(§3) The positive control was an anti-cancer drug adriamycin (ADM), which was set at three test concentrations (final concentrations) of 0.1, 1 and 10 µg/ml. To ADM stock solution (1 mg/ml) a certain amount of PRMI 1640 complete culture solution was added, to formulate a high-concentration solution, and each of the low-concentration solutions were formulated by proportionate dilutions from the high-concentration solution.
(§4) HL-60: (human promyelocytic leukemia cell line); K562 (human chronic myelocytic leukemia cell line); HT-29 (human colon cancer cell line); PC-3 (human prostate cancer cell line); A549 (human non-small cell lung cancer cell line); MKN-28 (human gastric cancer cell line); Hep2 (human laryngeal cancer cell line), all of which were purchased from Cell Bank of Shanghai Institutes for Biological Sciences, the Chinese Academy of Sciences.
(§5) Influence of the five test samples on the proliferation of 7 human tumor cell lines was determined via a modified MTT method.
(§6) Cells in logarithmic growth phase were taken, adjusted to a certain concentration and then added into a 96 well culture plate. After culture of adherent cells for a period until adherence, the test samples were added; and for suspension cells, the test samples were added after inoculation. 5 test concentrations 2, 10, 50, 250 and 500 µM were set, with 3 parallel wells for each concentration, 10 µl/well; the solvent controls were 0.5% and 1% of isovolumetric DMSO, and the positive controls was ADM at 3 concentrations 0.1, 1 and 10 µg/ml. The samples were loaded followed by culture for a period of time in an incubator at 37°C, 5% CO2, followed by addition of MTT (5 mg/ml) at 20 µl/well, and continued to be cultured for a period of time and added with a three-combined solution [10% SDS - 5% isobutanol - 0.012 mol/L HCl (W/V/V)]. After dissolving in uniformity, it was continued to be placed in the incubator at 37°C, 5% CO2 for a period of time, and the OD value of each well was determined under a wavelength of 570 nm with a microplate reader, according to which the results were calculated.
(§7) The cellular proliferation inhibition rate was calculated in accordance with the following equation: Inhibition rate (%) = (OD valuecontrol well-OD valuesample well)/OD valuecontrol well × 100% [formula]
(§8) When the inhibition rate of DMSO on cells was more than 15%, calculation was carried out using the following equation: Inhibition rate (%) = (OD valuesolvent group-OD valueadministered well)/OD valuesolvent group × 100% [formula]
(§9) The inhibition rate was calculated by using Microsoft Excel 2003, and median inhibitory concentration IC50 was calculated with a LOGIT method, which was used as an indicator for judging the inhibitory capability.

HL-60 cells = assay: modified MTT method, proliferation of HL-60 cells; details: Homo sapiens, read-out: IC50 on the growth of HL-60 cells
Protocol: as §1, §2, §3, §4, §5, §6, §7, §8, §9

A549 cells = assay: modified MTT method, proliferation of A549 cells; details: Homo sapiens, read-out: IC50 on the growth of A549 cells
Protocol: as §1, §2, §3, §4, §5, §6, §7, §8, §9

HT-29 cells = assay: modified MTT method, proliferation of HT-29 cells; details: Homo sapiens
Protocol: as §1, §2, §3, §4, §5, §6, §7, §8, §9
(§10) According to the results of preliminary screening, further experiments were adjusted such that more sensitive cell lines were screened out. […]

PC-3 cells = assay: modified MTT method, proliferation of PC-3 cells; details: Homo sapiens, read-out: IC50 on the growth of PC-3 cells
Protocol: as §1, §2, §3, §4, §5, §6, §7, §8, §9

MKN-28 cells = assay: modified MTT method, proliferation of MKN-28 cells; details: Homo sapiens, MKN-28, 72 h, secondary screening
Protocol: as §1, §2, §3, §4, §5, §6, §7, §8, §9, §10

Hep2 cells = assay: modified MTT method, proliferation of Hep2 cells; details: Homo sapiens, HEp-2, 72 h, secondary screening
Protocol: as §1, §2, §3, §4, §5, §6, §7, §8, §9, §10

C[C@H]1[C@@H](O)O[C@@H]2O[C@@]3(C)CC[C@H]4[C@H](C)CC[C@@H]1[C@@]24OO3 [dihydroartemisinin]
pIC50 (K562 cells; K562, 24 h, Batch 1, 24 h): < 3.00
pIC50 (K562 cells; K562, 24 h, Batch 2, 24 h): 3.84
pIC50 (K562 cells; K562, 24 h, Batch 3, 24 h): 3.83
pIC50 (K562 cells; K562, 48 h, Batch 1, 48 h): 3.00
pIC50 (K562 cells; K562, 48 h, Batch 2, 48 h): 4.55
pIC50 (K562 cells; K562, 48 h, Batch 3, 48 h): 4.09
pIC50 (K562 cells; K562, 72 h, Batch 1, 72 h): 3.31
pIC50 (K562 cells; K562, 72 h, Batch 2, 72 h): 4.35
pIC50 (K562 cells; K562, 72 h, Batch 3, 72 h): 4.22
pIC50 (HL-60 cells; HL-60, 24 h, Batch 1, 24 h): < 3.00
pIC50 (HL-60 cells; HL-60, 24 h, Batch 2, 24 h): 4.13
pIC50 (HL-60 cells; HL-60, 48 h, Batch 1, 48 h): < 3.00
pIC50 (HL-60 cells; HL-60, 48 h, Batch 2, 48 h): 4.79
pIC50 (HL-60 cells; HL-60, 72 h, Batch 1, 72 h): < 3.00
pIC50 (HL-60 cells; HL-60, 72 h, Batch 2, 72 h): 3.94
pIC50 (A549 cells; A549, 24 h, Batch 1, 24 h): < 3.00
pIC50 (A549 cells; A549, 24 h, Batch 2, 24 h): 3.03
pIC50 (A549 cells; A549, 48 h, Batch 1, 48 h): < 3.00
pIC50 (A549 cells; A549, 48 h, Batch 2, 48 h): 3.66
pIC50 (A549 cells; A549, 72 h, Batch 1, 72 h): < 3.00
pIC50 (A549 cells; A549, 72 h, Batch 2, 72 h): 3.72
pIC50 (HT-29 cells; HT-29, 24 h, preliminary screening, Batch 1, 24 h, read-out: IC50 on the growth of HT-29 cells): 3.54
pIC50 (HT-29 cells; HT-29, 24 h, preliminary screening, Batch 2, 24 h, read-out: IC50 on the growth of HT-29 cells): 3.55
pIC50 (HT-29 cells; HT-29, 48 h, preliminary screening, Batch 1, 48 h, read-out: IC50 on the growth of HT-29 cells): 3.47
pIC50 (HT-29 cells; HT-29, 48 h, preliminary screening, Batch 2, 48 h, read-out: IC50 on the growth of HT-29 cells): 3.36
pIC50 (HT-29 cells; HT-29, 72 h, preliminary screening, Batch 1, 72 h, read-out: IC50 on the growth of HT-29 cells): 3.79
pIC50 (HT-29 cells; HT-29, 72 h, preliminary screening, Batch 2, 72 h, read-out: IC50 on the growth of HT-29 cells): 3.59
pIC50 (HT-29 cells; HT-29, 72 h, secondary screening, 72 h, Batch 1, read-out: IC50 on the growth of HT-29 cells (72 h)): 3.63
pIC50 (HT-29 cells; HT-29, 72 h, secondary screening, 72 h, Batch 2, read-out: IC50 on the growth of HT-29 cells (72 h)): 3.76
pIC50 (HT-29 cells; HT-29, 72 h, secondary screening, 72 h, Batch 3, read-out: IC50 on the growth of HT-29 cells (72 h)): 3.83
pIC50 (HT-29 cells; HT-29, 72 h, secondary screening, 72 h, average, read-out: IC50 on the growth of HT-29 cells (72 h)): 3.84
pIC50 (PC-3 cells; PC-3, 24 h, Batch 1, 24 h): 3.18
pIC50 (PC-3 cells; PC-3, 24 h, Batch 2, 24 h): < 3.00
pIC50 (PC-3 cells; PC-3, 48 h, Batch 1, 48 h): < 3.00
pIC50 (PC-3 cells; PC-3, 48 h, Batch 2, 48 h): < 3.00
pIC50 (PC-3 cells; PC-3, 72 h, Batch 1, 72 h): 3.64
pIC50 (PC-3 cells; PC-3, 72 h, Batch 2, 72 h): < 3.00
pIC50 (MKN-28 cells; Average, read-out: IC50 on the growth of MKN-28 cells (72 h)): 4.79
pIC50 (MKN-28 cells; Batch 1, read-out: IC50 on the growth of MKN-28 cells (72 h)): 4.82
pIC50 (MKN-28 cells; Batch 2, read-out: IC50 on the growth of MKN-28 cells (72 h)): 4.77
pIC50 (MKN-28 cells; Batch 3, read-out: IC50 on the growth of MKN-28 cells (72 h)): 4.78
pIC50 (Hep2 cells; Batch 1, read-out: IC50 on the growth of Hep2 cells (72 h)): 3.94
pIC50 (Hep2 cells; Batch 2, read-out: IC50 on the growth of Hep2 cells (72 h)): 4.05
pIC50 (Hep2 cells; Batch 3, read-out: IC50 on the growth of Hep2 cells (72 h)): 3.90
pIC50 (Hep2 cells; average, read-out: IC50 on the growth of Hep2 cells (72 h)): 4.04
